Patent US11253565B2, “Nanoparticle ophthalmic composition for the treatment of ocular disorders or diseases” (Eye Pharma S.p.A., priority 2017, dated 2022)

Legend:
[1] = system: Sclerocorneal human trabecular meshwork cells (HTM cells); assay: MTT cell viability test on HTM cells with or without H2O2 oxidative damage; format: cell-based; conditions: H2O2 only
Procedure: (§1) Commercially available endothelial cellular lines of sclerocorneal trabecular meshwork were used. Said lines undergone a physiological ageing lasted about 10 cycles of cellular replication, thus representing a validated in vitro model of sclerocorneal trabecular meshwork degeneration. Sclerocorneal human trabecular meshwork cells (HTM cells. ScienceCell Research Laboratories, CA, USA) were grown in a nutritional medium containing 10% v/v fetal bovine serum, 2 mM L-glutamine, penicillin (100 IU/mL) at 37° C. in the presence of 5% v/v CO2. Once cells were semi-confluent (80% covering of the plate surface), cells were collected by treatment with trypsin/EDTA and distributed in multiwell microplates at a density of 7×10^3 cells/well. Cells at 80% confluence were pre-treated for 30 minutes with 50 μL of eye drops with different polyphenolic concentration (0.15% Perilla frutescens extract in 0.25% sodium hyaluronate (high eye drops) compared with a 0.10% Perilla frutescens extract in 0.25% sodium hyaluronate (standard eye drops)). […]
At the end of the treatment, the culture medium was removed, and cell viability and genotoxic damage were evaluated. […]
In particular, cell viability was assessed using the metabolization test of 3-(4,5-dimethyithiazol-2-yl)-2,5-diphenyltetrazolium bromide (MTT). […] The results were analysed by ANOVA using the Statview statistic software.

HTM cells [2] = assay: Genotoxic damage (comet test) in HTM cells; format: cell-based, human; conditions: treatment with substance only
Procedure: Commercially available endothelial cellular lines of sclerocorneal trabecular meshwork were used. Said lines undergone a physiological ageing lasted about 10 cycles of cellular replication, thus representing a validated in vitro model of sclerocorneal trabecular meshwork degeneration. Sclerocorneal human trabecular meshwork cells (HTM cells. ScienceCell Research Laboratories, CA, USA) were grown in a nutritional medium containing 10% v/v fetal bovine serum, 2 mM L-glutamine, penicillin (100 IU/mL) at 37° C. in the presence of 5% v/v CO2. […]
For the assessment of genotoxic damage, the comet test was used. […] In particular, the aspect of DNA fragmentation acquired by the comet test in HTM cells was evaluated. […] The images were then analysed at 400 magnifications by fluorescence microscope (Leica DMI 4000B) equipped with digital camera (Leica DFC 310 FX). For each slide a minimum of 100 nuclei were analysed by CASP imaging analysis system (Comet assay software project, http://www.casp.sourceforge.net). Single-strand and double-strand breaks were quantified in terms of “tail moment”, which is the product of the comet tail length multiplied by the total DNA fraction in the tail. […] The significance of differences among the various treatments was determined by ANOVA test.

HTM cells [3] = assay: Microscopic morphologic aspect of HTM cells in the different conditions of treatment; format: cell-based, human; conditions: treatment with substance only
Procedure: as §1

[4] = Corneal permeabilization / bioavailability test on whole ox eye with fluoresceine tracer; format: in vitro ADME; conditions: 30 minutes after application on anterior corneal surface
Procedure: The bioavailability was tested on whole ox eye (in vitro test) and on rabbit eyes (test in vivo) by applying the eye drops on the anterior corneal surface. A fluorescent tracer (fluoresceine) was added to the eye drops to follow the intraocular pharmacokinetics thereof. The transcorneal distribution of the std eye drops was evaluated by a slit lamp with determination of the fluorescence on both sides of the corneal membrane. A fluorescent tracer was added to the eye drops in order to follow the intraocular pharmacokinetics thereof. […] At the end of the prescribed time, its adsorption through the anterior chamber was assessed using a slit lamp. […] After the treatment, the fluid contained in the anterior chamber was collected and subjected to spectrofluorimetric analysis for the quantification of the tracer able to cross the corneal membrane. For the analysis, a […] spectrofluorometer (Hitachi, Tokyo, Japan) calibrated on specific fluorescence characteristics of fluoresceine (excitation 500 nm, emission 561 nm) was used. […] The ability of the std eye drops, both as such and in nanoparticle form, to pass the corneal membrane was thus determined by analysis del fluorescent track present in the fluid in the anterior chamber 30 minutes after the application of the preparation on the anterior corneal surface.

| fluorescent tracer in the fluid of the anterior chamber (spectrofluorimetry) [4] | SMILES | cytopathic effect (MTT cell viability) [1] | DNA damage / fragmentation (comet test) (HTM cells [2]) | HTM cell morphology (HTM cells [3]) |
| --- | --- | --- | --- | --- |
| – | OO [H2O2] | substantial cytopathic effect | nuclei are massively dissolved with evident diffusion of the fragmented DNA | cells take a rounded shape, separate from the substrate and reflect the light |
| conspicuous and specific positive signal | O=C1OC2(c3ccc(O)cc3Oc3cc(O)ccc32)c2ccccc21 [fluoresceine, fluorescein sodium] | – | – | – |
